Laboratory results reported in patent US5959178A, “Modification of lignin synthesis in plants” (Imperial Chemical Industries PLC, priority 1991, dated 1999).

Target: T1, purified poplar OMT (Populus trichocarpa x Populus deltoides, UniProt Q9LWB8)
T1 construct: closely related isoforms co-purify
Assay: Specific activity of the purified poplar OMT towards O-diphenolic substrates
Type: biochemical
Protocol: The specific activity of the purified OMT towards three different O-diphenolic substrates was measured. Using catechol, caffeic acid, and hydroxyferulic acid as substrate, we found an OMT activity of 0, 30, and 15 nkat/mg protein, respectively.

T1 sequence (Q9LWB8 entry or part of it T91I): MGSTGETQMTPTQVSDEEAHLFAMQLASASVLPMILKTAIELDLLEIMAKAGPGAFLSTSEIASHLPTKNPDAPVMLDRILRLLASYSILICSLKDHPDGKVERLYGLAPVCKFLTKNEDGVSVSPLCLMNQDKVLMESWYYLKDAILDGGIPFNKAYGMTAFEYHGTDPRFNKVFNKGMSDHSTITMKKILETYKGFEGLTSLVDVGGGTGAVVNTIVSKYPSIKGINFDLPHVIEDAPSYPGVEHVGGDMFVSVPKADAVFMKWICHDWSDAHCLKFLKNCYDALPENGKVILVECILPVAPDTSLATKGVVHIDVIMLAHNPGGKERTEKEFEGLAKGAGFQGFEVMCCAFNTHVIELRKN

Oc1ccccc1O [catechol]
OMT activity (specific activity) with compound as substrate: 0 nkat/mg protein

O=C(O)/C=C/c1ccc(O)c(O)c1 [caffeic acid]
OMT activity (specific activity) with compound as substrate: 30 nkat/mg protein
